Reference: ChEMBL document CHEMBL4842340, “Development of Cagrilintide, a Long-Acting Amylin Analogue” (J Med Chem, 2021)
In brackets after ≈: the same amount, converted by molar mass. *1 amine or outer side, *2 acyl side, *3 side chain or, on linkers, in order; H or OH if unused. Where a SMILES comes first, the peptide text is derived from it. Bridges are numbered along the chain shown (N, C = ends). [ ]: non-standard residue; d: D form. The star is where a group is joined. C20 diacid = O=C(O)CCCCCCCCCCCCCCCCCCC(=O)*; γGlu = O=C(O)[C@H](CCC(=O)[*:2])N[*:1]

What was measured:
[1] = Agonist activity at rat calcitonin receptor expressed in BHK-13 cells assessed as increase in intracellular cAMP concentration incubated for 25 mins by CRE luciferase reporter gene assay; assay type: cell-based; conditions: BHK-13, 25 min
[2] = Solubility of the compound in bis-tris propane at pH 7 by UPLC analysis; assay type: physicochemical; conditions: bis-tris propane buffer
[3] = Solubility of the compound in lactate at pH 4 by UPLC analysis; assay type: physicochemical; conditions: lactate buffer
[4] = Agonist activity at human calcitonin receptor expressed in BHK570 cells assessed as increase in intracellular cAMP concentration incubated for 3 hrs in absence of albumin by CRE luciferase reporter gene assay; assay type: cell-based; conditions: BHK570, 3 h
[5] = Solubility of the compound in bis-tris propane at pH 8 by UPLC analysis; assay type: physicochemical; conditions: bis-tris propane buffer
Insulin (Homo sapiens) [6] = molecular target: Insulin (Homo sapiens) (UniProt P01308); experiment: Effect on insulin (unknown origin) amyloid fibril formation assessed as lag time in glycyl-glycine buffer at pH 4 measured after 45 hrs by thioflavin-T fluorescence assay
Chain of Insulin (Homo sapiens) (P01308 whole entry): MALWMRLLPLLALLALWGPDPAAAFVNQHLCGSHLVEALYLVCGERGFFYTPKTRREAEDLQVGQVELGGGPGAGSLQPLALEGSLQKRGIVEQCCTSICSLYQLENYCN

Rattus norvegicus [7] = experiment: Reduction in food intake in Sprague-Dawley rat at 3 nmol/kg, sc administered as single dose measured upto 24 hrs relative to control; assay type: functional; set-up: scale not given: the % may be the effect or the level left; conditions: time hrs <=24
[8] = Solubility of the compound in bis-tris propane at pH 6.5 by UPLC analysis; assay type: physicochemical; conditions: bis-tris propane buffer
[9] = Solubility of the compound in lactate at pH 3 by UPLC analysis; assay type: physicochemical; conditions: lactate buffer
Rattus norvegicus [10] = organism: Rattus norvegicus; experiment: Ratio of EC50 for rat calcitonin receptor expressed in BHK-13 cells to EC50 for rat AMY3R (CT+RAMP3) expressed in tk-ts13 cells; assay type: cell-based
Insulin (Homo sapiens) [11] = molecular target: Insulin (Homo sapiens) (UniProt P01308); experiment: Effect on insulin (unknown origin) amyloid fibril formation assessed as lag time in HEPES buffer at pH 7.5 measured after 45 hrs by thioflavin-T fluorescence assay
Rattus norvegicus [12] = experiment: Reduction in food intake in Sprague-Dawley rat at 3 nmol/kg, sc administered as single dose measured after 24 to 48 hrs relative to control; assay type: functional; set-up: scale not given: the % may be the effect or the level left; conditions: time 24-48 hrs
[13] = Solubility of the compound in lactate at pH 5 by UPLC analysis; assay type: physicochemical; conditions: lactate buffer
[14] = Solubility of the compound in bis-tris propane at pH 7.5 by UPLC analysis; assay type: physicochemical; conditions: bis-tris propane buffer
Homo sapiens [15] = organism: Homo sapiens; experiment: Ratio of EC50 for human calcitonin receptor expressed in BHK570 cells to EC50 for human AMY3R (CT+RAMP3) expressed in Hollex1 cells; assay type: cell-based
[16] = Agonist activity at rat AMY3R (CT+RAMP3) expressed in tk-ts13 cells assessed as increase in intracellular cAMP level incuabted for 25 mins by CRE luciferase reporter gene assay; assay type: cell-based; conditions: tk-ts13, 25 min
Insulin (Homo sapiens) [17] = molecular target: Insulin (Homo sapiens) (UniProt P01308); experiment: Effect on insulin (unknown origin) amyloid fibril formation assessed as peptide recovery in glycyl-glycine buffer at pH 4 measured after 45 hrs by thioflavin-T fluorescence assay relative to control; set-up: concentration or dose not given beside the values
[18] = Solubility of the compound in bis-tris propane at pH 6 by UPLC analysis; assay type: physicochemical; conditions: bis-tris propane buffer
[19] = Agonist activity at human AMY3R (CT+RAMP3) expressed in Hollex1 cells incubated for 3 hrs by luminescence assay; assay type: cell-based; conditions: Hollex1, 3 h
Insulin (Homo sapiens) [20] = molecular target: Insulin (Homo sapiens) (UniProt P01308); experiment: Effect on insulin (unknown origin) amyloid fibril formation assessed as peptide recovery in HEPES buffer at pH 7.5 measured after 45 hrs by thioflavin-T fluorescence assay relative to control
Rattus norvegicus [21] = experiment: Reduction in food intake in Sprague-Dawley rat at 30 nmol/kg, sc administered as single dose measured upto 24 hrs relative to control; assay type: functional; set-up: scale not given: the % may be the effect or the level left; conditions: time hrs <=24
[22] = Displacement of [125I]-amylin from human AMY3R (CTR+RAMP3) expressed in BHK-13 cells measured after 120 mins by scintillation proximity assay; assay type: cell-based
Homo sapiens [23] = organism: Homo sapiens; experiment: Ratio of IC50 for displacement of [125I]-calcitonin from human calcitonin receptor expressed in tk-ts 13 cells to IC50 for displacement of [125I]-amylin from human AMY3R (CTR+RAMP3) expressed in BHK-13 cells; assay type: cell-based
Rattus norvegicus [24] = organism: Rattus norvegicus; experiment: Ratio of IC50 for displacement of [125I]-calcitonin from rat calcitonin receptor expressed in tk-ts 13 cells to IC50 for displacement of [125I]-amylin from rat AMY3R (CTR+RAMP3) expressed in BHK-13 cells; assay type: cell-based
[25] = Displacement of [125I]-amylin from rat AMY3R (CTR+RAMP3) expressed in BHK-13 cells measured after 120 mins by scintillation proximity assay; assay type: cell-based
Rattus norvegicus [26] = experiment: Reduction in food intake in Sprague-Dawley rat at 30 nmol/kg, sc administered as single dose measured after 24 to 48 hrs relative to control; assay type: functional; set-up: scale not given: the % may be the effect or the level left; conditions: time 24-48 hrs
[27] = Displacement of [125I]-calcitonin from rat calcitonin receptor expressed in tk-ts 13 cells measured after 120 mins by scintillation proximity assay; assay type: cell-based; conditions: tk-ts13
[28] = Displacement of [125I]-calcitonin from human calcitonin receptor expressed in tk-ts 13 cells measured after 120 mins by scintillation proximity assay; assay type: cell-based; conditions: tk-ts13

Row | SMILES | EC50 [1] | solubility [2] | solubility [3] | EC50 [4] | solubility [5] | TIME (Insulin (Homo sapiens) [6]) | Activity (Rattus norvegicus [7]) | solubility [8] | solubility [9] | Ratio EC50 (Rattus norvegicus [10]) | TIME (Insulin (Homo sapiens) [11]) | Activity (Rattus norvegicus [12]) | solubility [13] | solubility [14] | Ratio EC50 (Homo sapiens [15]) | EC50 [16] | Activity (Insulin (Homo sapiens) [17]) | solubility [18] | EC50 [19] | further results
1 | CC[C@H](C)[C@H](NC(=O)[C@@H]1CCCN1C(=O)CNC(=O)[C@H](Cc1ccccc1)NC(=O)[C@H](CC(N)=O)NC(=O)[C@H](CC(N)=O)NC(=O)[C@H](CO)NC(=O)[C@H](CO)NC(=O)[C@H](Cc1c[nH]cn1)NC(=O)[C@H](Cc1cnc[nH]1)NC(=O)[C@H](CC(C)C)NC(=O)[C@H](Cc1ccccc1)NC(=O)[C@H](CCC(=O)O)NC(=O)[C@H](C)NC(=O)[C@H](CC(C)C)NC(=O)[C@H](CCCNC(=N)N)NC(=O)[C@H](CCC(N)=O)NC(=O)[C@@H](NC(=O)[C@H](C)NC(=O)[C@@H]1CSSC[C@H](NC(=O)[C@H](CCCCN)NC(=O)CC[C@H](NC(=O)CC[C@H](NC(=O)CCCCCCCCCCCCCCCCCCC(=O)O)C(=O)O)C(=O)O)C(=O)N[C@@H](CC(N)=O)C(=O)N[C@@H]([C@@H](C)O)C(=O)N[C@@H](C)C(=O)N[C@@H]([C@@H](C)O)C(=O)N1)[C@@H](C)O)C(=O)N[C@@H](CC(C)C)C(=O)N1CCC[C@H]1C(=O)N1CCC[C@H]1C(=O)N[C@H](C(=O)N[C@@H](CC(N)=O)C(=O)N[C@H](C(=O)NCC(=O)N[C@@H](CO)C(=O)N[C@@H](Cc1cnc[nH]1)C(=O)N[C@H](C(=O)N[C@@H](Cc1ccc(O)cc1)C(N)=O)[C@@H](C)O)C(C)C)[C@@H](C)O ({C20 diacid-γGlu-γGlu}-KCNTATCATQRLAEFLHHSSNNFGPILPPTNVGSHTY-NH2; disulfide 2-7) | 4.97 nM | 200 µM (≈ 922 µg/mL) | 200 µM (≈ 922 µg/mL) | 0.347 nM | 200 µM (≈ 922 µg/mL) | 16 h | 46% | 200 µM (≈ 922 µg/mL) | 200 µM (≈ 922 µg/mL) | 8 | 4 h | 21% | 200 µM (≈ 922 µg/mL) | 200 µM (≈ 922 µg/mL) | 1 | 0.623 nM | 35% | 200 µM (≈ 922 µg/mL) | 0.297 nM | 
2 | CC[C@H](C)[C@H](NC(=O)[C@@H]1CCCN1C(=O)CNC(=O)[C@H](Cc1ccccc1)NC(=O)[C@H](CO)NC(=O)[C@H](CO)NC(=O)[C@H](CO)NC(=O)[C@H](CO)NC(=O)[C@H](CCCNC(=N)N)NC(=O)[C@H](Cc1cnc[nH]1)NC(=O)[C@H](CC(C)C)NC(=O)[C@H](Cc1ccccc1)NC(=O)[C@H](CCC(=O)O)NC(=O)[C@H](C)NC(=O)[C@H](CC(C)C)NC(=O)[C@H](CCCNC(=N)N)NC(=O)[C@H](CCC(N)=O)NC(=O)[C@@H](NC(=O)[C@H](C)NC(=O)[C@@H]1CSSC[C@H](NC(=O)[C@H](Cc2cnc[nH]2)NC(=O)CC[C@H](NC(=O)CCCCCCCCCCCCCCCCCCC(=O)O)C(=O)O)C(=O)N[C@@H](CC(N)=O)C(=O)N[C@@H]([C@@H](C)O)C(=O)N[C@@H](C)C(=O)N[C@@H]([C@@H](C)O)C(=O)N1)[C@@H](C)O)C(=O)N[C@@H](CC(C)C)C(=O)N1CCC[C@H]1C(=O)N1CCC[C@H]1C(=O)N[C@H](C(=O)N[C@@H](CC(=O)O)C(=O)N[C@H](C(=O)NCC(=O)N[C@@H](CO)C(=O)N[C@@H](CC(=O)O)C(=O)N[C@H](C(=O)N[C@@H](Cc1ccc(O)cc1)C(N)=O)[C@@H](C)O)C(C)C)[C@@H](C)O ({C20 diacid-γGlu}-HCNTATCATQRLAEFLHRSSSSFGPILPPTDVGSDTY-NH2; disulfide 2-7) | 1.58 nM | 200 µM (≈ 886 µg/mL) |  | 0.18 nM | 200 µM (≈ 886 µg/mL) | 45 h |  | 200 µM (≈ 886 µg/mL) | 200 µM (≈ 886 µg/mL) | 6 | 45 h |  | 5 µM (≈ 22.2 µg/mL) | 200 µM (≈ 886 µg/mL) | 1 | 0.278 nM | 57% | 200 µM (≈ 886 µg/mL) | 0.166 nM | Activity (Insulin (Homo sapiens) [20]): 94%
3 | CC[C@H](C)[C@H](NC(=O)[C@@H]1CCCN1C(=O)CNC(=O)[C@H](Cc1ccccc1)NC(=O)[C@H](CC(N)=O)NC(=O)[C@H](CC(N)=O)NC(=O)[C@H](CO)NC(=O)[C@H](CO)NC(=O)[C@H](Cc1cnc[nH]1)NC(=O)[C@H](Cc1cnc[nH]1)NC(=O)[C@H](CC(C)C)NC(=O)[C@H](Cc1ccccc1)NC(=O)[C@H](CC(N)=O)NC(=O)[C@H](C)NC(=O)[C@H](CC(C)C)NC(=O)[C@H](CCCNC(=N)N)NC(=O)[C@H](CCC(N)=O)NC(=O)[C@@H](NC(=O)[C@H](C)NC(=O)[C@@H]1CSSC[C@H](NC(=O)[C@H](Cc2cnc[nH]2)NC(=O)CC[C@H](NC(=O)[C@H](Cc2cnc[nH]2)NC(=O)[C@H](Cc2cnc[nH]2)NC(=O)CCCCCCCCCCCCCCCCCCC(=O)O)C(=O)O)C(=O)N[C@@H](CC(N)=O)C(=O)N[C@@H]([C@@H](C)O)C(=O)N[C@@H](C)C(=O)N[C@@H]([C@@H](C)O)C(=O)N1)[C@@H](C)O)C(=O)N[C@@H](CC(C)C)C(=O)N1CCC[C@H]1C(=O)N1CCC[C@H]1C(=O)N[C@H](C(=O)N[C@@H](CC(N)=O)C(=O)N[C@H](C(=O)NCC(=O)N[C@@H](CO)C(=O)N[C@@H](CC(N)=O)C(=O)N[C@H](C(=O)N[C@@H](Cc1ccc(O)cc1)C(N)=O)[C@@H](C)O)C(C)C)[C@@H](C)O ({C20 diacid}-HH[γGlu]HCNTATCATQRLANFLHHSSNNFGPILPPTNVGSNTY-NH2; disulfide 5-10) | 14.1 nM | 1 µM (≈ 4.72 µg/mL) | 200 µM (≈ 945 µg/mL) | 0.136 nM | 1 µM (≈ 4.72 µg/mL) | 6 h | 32% | 1 µM (≈ 4.72 µg/mL) | 200 µM (≈ 945 µg/mL) | 42 |  | 4% | 200 µM (≈ 945 µg/mL) | 1 µM (≈ 4.72 µg/mL) | 2 | 0.335 nM | 9% | 1 µM (≈ 4.72 µg/mL) | 0.074 nM | Activity (Rattus norvegicus [21]): 75%; IC50 [22]: 0.216 nM; Ratio IC50 (Homo sapiens [23]): 6; Ratio IC50 (Rattus norvegicus [24]): 22; IC50 [25]: 0.149 nM; Activity (Rattus norvegicus [26]): 44%; IC50 [27]: 3.33 nM; IC50 [28]: 1.3 nM
